Activity calls are given as the source filed them. The calls are words filed in the database; no cut-off is given here.
How the values were obtained:
[1] = test system: Pseudomonas aeruginosa; assay: Synergistic antibacterial activity against Pseudomonas aeruginosa clinical isolate 0815 assessed as reduction in bacterial viability at 10 to 50 uM incubated for 24 hrs in presence of 1/2 MIC of tobramycin by LB agar plate method; assay type: functional, organism-based; conditions: dose 10-50 µM
[2] = Cytotoxicity against African green monkey Vero cells assessed as reduction in cell viability at <=100 uM incubated for 24 hrs by MTT assay; assay type: toxicity, cell-based; conditions: chlorocebus sabaeus
[3] = test system: Pseudomonas aeruginosa; assay: Synergistic antibacterial activity against Pseudomonas aeruginosa PAO1 assessed as reduction in cell viability at 10 to 50 uM incubated for 24 hrs in the presence of 1/8 MIC of polymyxin B by LB agar plate method; assay type: functional, organism-based; conditions: dose 10-50 µM
[4] = test system: Pseudomonas aeruginosa; assay: Synergistic antibacterial activity against Pseudomonas aeruginosa clinical isolate 1167 assessed as reduction in bacterial viability at 10 to 50 uM incubated for 24 hrs in presence of 1/4 MIC of tobramycin by LB agar plate method; assay type: functional, organism-based; conditions: dose 10-50 µM
[5] = test system: Pseudomonas aeruginosa; assay: Synergistic antibacterial activity against Pseudomonas aeruginosa clinical isolate 1121 assessed as fold reduction in bacterial viability at 50 uM incubated for 24 hrs in presence of 1/2 MIC of polymyxin B by LB agar plate method relative to polymyxin B alone; assay type: functional
[6] = test system: Pseudomonas aeruginosa; assay: Synergistic antibacterial activity against Pseudomonas aeruginosa PAO1 assessed as reduction in cell viability at 10 to 50 uM incubated for 24 hrs in the presence of 1/2 MIC of tobramycin by LB agar plate method; assay type: functional, organism-based; conditions: dose 10-50 µM
[7] = test system: Pseudomonas aeruginosa; assay: Antibacterial activity against Pseudomonas aeruginosa PAO1 infected in Caenorhabditis elegans assessed as worm survival rate at 10 uM measured after 72 hrs in presence of tobramycin at 1/2 MIC by bright field microscopic analysis relative to control; assay type: functional
[8] = test system: Pseudomonas aeruginosa; assay: Antibacterial activity against Pseudomonas aeruginosa clinical isolate 0617 assessed as inhibition of bacterial growth incubated for 24 hrs by CLSI protocol based method; assay type: functional, organism-based
[9] = test system: Pseudomonas aeruginosa; assay: Antivirulence activity in Pseudomonas aeruginosa clinical isolate 0815 assessed as reduction in pyocyanin production at 10 uM incubated for 24 hrs by absorbance based analysis; assay type: functional, organism-based
[10] = test system: Pseudomonas aeruginosa; assay: Antibiofilm activity against Pseudomonas aeruginosa overexpressing fpvA assessed as inhibition of biofilm formation at 20 uM incubated for 24 hrs by crystal violet staining based analysis relative to control; assay type: functional
[11] = test system: Pseudomonas aeruginosa; assay: Synergistic antibacterial activity against Pseudomonas aeruginosa clinical isolate 1121 assessed as fold reduction in bacterial viability at 50 uM incubated for 24 hrs in presence of 1/2 MIC of tobramycin by LB agar plate method relative to tobramycin alone; assay type: functional
[12] = Toxicity in Caenorhabditis elegans assessed as effect on survival upto 200 uM incubated for 72 hrs by bright-field microscopic analysis
[13] = test system: Pseudomonas aeruginosa; assay: Induction of Fe3+ chelating activity in Pseudomonas aeruginosa PAO1 assessed as increase in pyochelin production by measuring fold change at 50 uM incubated for 24 hrs by fluorescence microplate reader
[14] = Inhibition of quorum sensing system in Pseudomonas aeruginosa PAO1 transfected with mini-ctx-rhlA-lacZ reporter gene assessed as decrease in beta-galactosidase activity incubated for 6 hrs by Miller assay; conditions: dose 1.25-20 µM
[15] = test system: Pseudomonas aeruginosa; assay: Antibacterial activity against Pseudomonas aeruginosa clinical isolate 0808 assessed as inhibition of bacterial growth incubated for 24 hrs by CLSI protocol based method; assay type: functional, organism-based
[16] = test system: Pseudomonas aeruginosa; assay: Antivirulence activity in Pseudomonas aeruginosa clinical isolate 0815 assessed as reduction in elastase production at 10 uM incubated for 24 hrs by elastin-congo red dye based absorbance assay; assay type: functional, organism-based
[17] = test system: Pseudomonas aeruginosa; assay: Synergistic antibacterial activity against Pseudomonas aeruginosa clinical isolate 1121 assessed as reduction in bacterial viability at 10 to 50 uM incubated for 24 hrs in presence of 1/2 MIC of tobramycin by LB agar plate method; assay type: functional, organism-based; conditions: dose 10-50 µM
[18] = test system: Pseudomonas aeruginosa; assay: Antibiofilm activity against Pseudomonas aeruginosa PAO1 assessed as decrease in biofilm formation incubated for 24 hrs by LIVE/DEAD BacLight staining based 3D confocal laser scanning microscopy; assay type: functional, organism-based; conditions: dose 1-10 µM
[19] = test system: Pseudomonas aeruginosa; assay: Synergistic antibacterial activity against Pseudomonas aeruginosa clinical isolate 0815 assessed as reduction in bacterial viability at 10 to 50 uM incubated for 24 hrs in presence of 1/8 MIC of tobramycin by LB agar plate method; assay type: functional, organism-based; conditions: dose 10-50 µM
[20] = test system: Pseudomonas aeruginosa; assay: Synergistic antibacterial activity against Pseudomonas aeruginosa PAO1 assessed as bacterial survival rate at 50 uM incubated for 24 hrs in presence of 1/2 MIC of tobramycin by LB agar plate method relative to control; assay type: functional
[21] = test system: Pseudomonas aeruginosa; assay: Antibacterial activity against Pseudomonas aeruginosa clinical isolate 1121 assessed as inhibition of bacterial growth incubated for 24 hrs by CLSI protocol based method; assay type: functional, organism-based
[22] = test system: Pseudomonas aeruginosa; assay: Antibacterial activity against Pseudomonas aeruginosa PAO1 infected in Caenorhabditis elegans assessed as worm survival at 10 uM by bright-field microscopic analysis (reference value: 24 hrs); assay type: functional
[23] = test system: Pseudomonas aeruginosa; assay: Synergistic antibacterial activity against Pseudomonas aeruginosa clinical isolate 1167 assessed as reduction in bacterial viability at 10 to 50 uM incubated for 24 hrs in presence of 1/2 MIC of polymyxin B by LB agar plate method; assay type: functional, organism-based; conditions: dose 10-50 µM
[24] = test system: Pseudomonas aeruginosa; assay: Antibacterial activity against Pseudomonas aeruginosa clinical isolate 1031 assessed as inhibition of bacterial growth incubated for 24 hrs by CLSI protocol based method; assay type: functional, organism-based
[25] = test system: Pseudomonas aeruginosa; assay: Antibacterial activity against Pseudomonas aeruginosa PAO1 infected in Caenorhabditis elegans assessed as worm survival at 50 uM by bright-field microscopic analysis (reference value: 24 hrs); assay type: functional
[26] = test system: Pseudomonas aeruginosa; assay: Inhibition of motility in Pseudomonas aeruginosa PAO1 assessed as reduction in twitching movements at 50 uM incubated for 16 hrs by motility assay; assay type: functional, organism-based
[27] = test system: Pseudomonas aeruginosa; assay: Synergistic antibacterial activity against Pseudomonas aeruginosa PAO1 assessed as fold reduction in bacterial survival rate incubated for 24 hrs in presence of norfloxacin by LB agar plate method; assay type: functional
[28] = test system: Pseudomonas aeruginosa; assay: Synergistic antibacterial activity against Pseudomonas aeruginosa clinical isolate 1167 assessed as reduction in bacterial viability at 10 to 50 uM incubated for 24 hrs in presence of 1/4 MIC of polymyxin B by LB agar plate method; assay type: functional, organism-based; conditions: dose 10-50 µM
[29] = test system: Pseudomonas aeruginosa; assay: Antibacterial activity against Pseudomonas aeruginosa clinical isolate 1167 assessed as inhibition of bacterial growth incubated for 24 hrs by CLSI protocol based method; assay type: functional, organism-based
[30] = Cytotoxicity against African green monkey Vero cells assessed as reduction in cell viability incubated for 24 hrs by MTT assay; assay type: toxicity, cell-based; conditions: chlorocebus sabaeus
[31] = test system: Pseudomonas aeruginosa; assay: Synergistic antibacterial activity against Pseudomonas aeruginosa clinical isolate 1121 assessed as reduction in bacterial viability at 10 to 50 uM incubated for 24 hrs in presence of 1/2 MIC of polymyxin B by LB agar plate method; assay type: functional, organism-based; conditions: dose 10-50 µM
[32] = test system: Pseudomonas aeruginosa; assay: Antivirulence activity in Pseudomonas aeruginosa clinical isolate 0815 assessed as reduction in rhamnolipid production at 10 uM incubated for 24 hrs by absorbance based microtiter plate reader analysis; assay type: functional, organism-based
[33] = test system: Pseudomonas aeruginosa; assay: Antibacterial activity against Pseudomonas aeruginosa PAO1 assessed as inhibition of bacterial growth incubated for 24 hrs by CLSI protocol based method; assay type: functional
[34] = test system: Pseudomonas aeruginosa; assay: Synergistic antibacterial activity against Pseudomonas aeruginosa PAO1 assessed as fold reduction in bacterial survival rate incubated for 24 hrs in presence of ceftazidime by LB agar plate method; assay type: functional
[35] = test system: Pseudomonas aeruginosa; assay: Antibacterial activity against Pseudomonas aeruginosa clinical isolate FB assessed as inhibition of bacterial growth incubated for 24 hrs by CLSI protocol based method; assay type: functional, organism-based

Cc1cc(=O)c(O)c(C(=O)NCCCCCCCCNc2ccnc3cc(Cl)ccc23)n1C.Cl
Activity [1]: Active | Activity [2]: Non-Toxic | Activity [3]: Active | Activity [4]: Active | fold change (FC) [5]: 15 | Activity [6]: Active | survival at 10 µM [7]: 28.4% | Activity [8]: inactive | Activity [9]: Active | inhibition at 20 µM [10]: ~30% | fold change (FC) [11]: 15 | Activity [12]: Non-Toxic | fold change (FC) [13]: 2 | inhibition [14]: Dose-Dependent Effect | Activity [15]: inactive | Activity [16]: Active | Activity [17]: Active | Activity [18]: Dose-Dependent Effect | Activity [19]: Active | survival at 50 µM [20]: < 0.2% | Activity [21]: inactive | Survival [22]: 32 h | Activity [23]: Active | Activity [24]: inactive | Survival [25]: 56 h | inhibition [26]: Active | fold change (FC) [27]: <10 | Activity [28]: Active | Activity [29]: inactive | CC50 at 24 h [30]: > 800 µM | Activity [31]: Active | Activity [32]: Active | MIC [33]: ≥ 512 µM | fold change (FC) [34]: <10 | Activity [35]: inactive

— ChEMBL document CHEMBL5614443, “Hybrids of 3-Hydroxypyridin-4(1H)-ones and Long-Chain 4-Aminoquinolines as Potent Biofilm Inhibitors of Pseudomonas aeruginosa Potentiate Tobramycin and Polymyxin B Activity” (J Med Chem, 2024)
